Assay [1] is filed under the species Bos taurus. The experiment in a line: Inhibition of supercoiling activity of calf thymus topoisomerase 1 using […] as substrate after 15 mins by ethidium bromide staining.
Assay [2] relates to Escherichia coli. The experiment in a line: Inhibition of cleavage activity of Escherichia coli DNA gyrase using relaxed pBR322 as substrate at 200 uM after 10 mins by agarose gel electrophoresis analysis relative to control.
A short description of assay [3]: Inhibition of supercoiling activity of Escherichia coli DNA gyrase using relaxed pBR322 as substrate after 15 mins by ethidium bromide staining.
Assay [4] deals with T1, DNA topoisomerase 2-alpha (Homo sapiens, UniProt P11388). The experiment in a line: Inhibition of cleavage activity of human topoisomerase 2 using relaxed pBR322 as substrate at 200 uM after 10 mins by agarose gel electrophoresis analysis relative to control.
T1 sequence (P11388 whole entry): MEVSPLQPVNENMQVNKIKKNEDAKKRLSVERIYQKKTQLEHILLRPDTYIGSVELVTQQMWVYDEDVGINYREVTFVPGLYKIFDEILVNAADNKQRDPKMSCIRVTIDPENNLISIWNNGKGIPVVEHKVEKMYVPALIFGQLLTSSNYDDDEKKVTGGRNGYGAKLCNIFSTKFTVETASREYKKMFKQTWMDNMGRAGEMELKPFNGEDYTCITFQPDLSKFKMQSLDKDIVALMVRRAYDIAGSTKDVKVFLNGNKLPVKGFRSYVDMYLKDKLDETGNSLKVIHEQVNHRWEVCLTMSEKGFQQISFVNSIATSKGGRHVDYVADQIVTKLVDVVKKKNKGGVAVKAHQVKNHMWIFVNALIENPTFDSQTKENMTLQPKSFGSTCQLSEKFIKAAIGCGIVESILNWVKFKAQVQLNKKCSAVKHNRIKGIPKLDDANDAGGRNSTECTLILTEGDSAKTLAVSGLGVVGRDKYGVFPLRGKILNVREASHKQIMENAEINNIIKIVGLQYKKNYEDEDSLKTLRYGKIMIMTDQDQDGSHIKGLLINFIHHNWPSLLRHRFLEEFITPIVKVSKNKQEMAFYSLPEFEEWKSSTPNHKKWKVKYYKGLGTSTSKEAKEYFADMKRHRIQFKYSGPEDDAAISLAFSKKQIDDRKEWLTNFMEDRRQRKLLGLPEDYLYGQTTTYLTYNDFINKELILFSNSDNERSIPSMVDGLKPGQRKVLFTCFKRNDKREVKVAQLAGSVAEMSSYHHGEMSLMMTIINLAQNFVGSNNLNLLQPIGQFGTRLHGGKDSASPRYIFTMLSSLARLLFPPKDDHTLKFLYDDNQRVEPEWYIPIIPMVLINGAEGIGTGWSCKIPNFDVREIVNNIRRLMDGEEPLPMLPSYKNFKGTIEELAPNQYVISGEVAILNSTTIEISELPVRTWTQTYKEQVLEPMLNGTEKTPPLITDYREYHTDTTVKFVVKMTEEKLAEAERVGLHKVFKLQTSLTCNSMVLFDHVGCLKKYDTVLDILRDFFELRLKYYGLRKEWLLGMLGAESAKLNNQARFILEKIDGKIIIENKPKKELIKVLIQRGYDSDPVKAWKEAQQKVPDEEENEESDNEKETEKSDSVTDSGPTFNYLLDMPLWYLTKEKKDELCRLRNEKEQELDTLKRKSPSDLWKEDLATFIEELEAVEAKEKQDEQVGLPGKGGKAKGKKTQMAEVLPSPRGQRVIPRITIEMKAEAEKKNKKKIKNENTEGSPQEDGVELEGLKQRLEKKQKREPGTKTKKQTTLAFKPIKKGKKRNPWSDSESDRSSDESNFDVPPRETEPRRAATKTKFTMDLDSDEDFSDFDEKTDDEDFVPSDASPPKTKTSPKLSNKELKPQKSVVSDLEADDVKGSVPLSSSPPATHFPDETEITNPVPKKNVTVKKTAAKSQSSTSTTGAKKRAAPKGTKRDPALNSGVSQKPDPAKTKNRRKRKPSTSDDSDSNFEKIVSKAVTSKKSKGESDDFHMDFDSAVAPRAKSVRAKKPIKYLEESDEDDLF
For assay [5], the target named is T1, DNA topoisomerase 2-alpha. The assay is described as follows: Inhibition of human topoisomerase 2 using […] as substrate after 10 mins by decatenation assay.
In assay [6] the test system is Escherichia coli. The experiment in a line: Inhibition of Escherichia coli DNA gyrase interaction to 5'-biotinylated DNA after 4 mins by surface plasmon resonance analysis. In general terms: Surface plasmon resonance follows binding to a sensor surface in real time, without labels.

The source made the active and inactive calls. The calls are words filed in the database; no cut-off is given here.

On to `O=c1c(O)c(-c2ccc(O)c(O)c2)oc2cc(O)cc(O)c12`, for which the inhibition entry in assay [1] was “Active”.
The IC50 is the concentration that gives 50% inhibition. `CC(=O)O[C@@H]1[C@@H](C)O[C@@H](c2ccc3c(c2O)[C@@H](O)[C@]24O[C@@]2(C3=O)[C@@]2(O)C(=O)C=C(C)C[C@@]2(O)C[C@@H]4O)C[C@H]1OC(=O)/C=C/C=C/C=C/C=C/C(=O)Nc1c(O)c2ccc(O)c(Cl)c2oc1=O` [SIMOCYCLINONE D8]: in assay [2], the fold change (FC) is less than 1. In assay [3], this compound showed an IC50 of 0.41 µM.
As for `O=C(CCCCCC(=O)Oc1c(-c2ccc(O)c(O)c2)oc2cc(O)cc(O)c2c1=O)NCC(=O)Nc1ccc(O)c(CO)c1`, the inhibition entry in assay [1] is “inactive”. The values for the fold change (FC) in assay [4] and in assay [2] were less than 1 and 1.9, respectively. The IC50 in assay [5] was 78.9 µM; in assay [3], greater than 200 µM.
`O=C(CCCCCC(=O)Oc1c(-c2ccc(O)c(O)c2)oc2cc(O)cc(O)c2c1=O)NCC(=O)Nc1ccccc1`: the inhibition result in assay [1] was “Active”. In addition, the fold change (FC) in assay [4] is 2.7; in assay [2], 7.8. Moreover, the values for the concentration for half-maximal inhibition (IC50) in assay [5] and in assay [3] were 149 µM and 48.6 µM, respectively. The inhibition result in assay [6] is “inactive”.
Turning to `O=C(CCCCCC(=O)Oc1c(-c2ccc(O)c(O)c2)oc2cc(O)cc(O)c2c1=O)NCC(=O)Nc1ccc(O)cc1`, the inhibition result in assay [1] is “Active”. The fold change (FC) came to 2.4 in assay [4] and 5 in assay [2]. Moreover, the IC50 in assay [5] is greater than 200 µM; in assay [3] it was 84.7 µM. The inhibition entry in assay [6] was “inactive”.
Regarding `COC(=O)CCCCCCCCC(=O)Oc1c(-c2ccc(O)c(O)c2)oc2cc(O)cc(O)c2c1=O`, the inhibition result in assay [1] was “inactive”. Moreover, the fold change (FC) in assay [4] and in assay [2] was less than 1 throughout. The concentration for half-maximal inhibition (IC50) in assay [5] and in assay [3] was greater than 200 µM throughout.
Regarding `COC(=O)/C=C/C=C/C=C/C=C/C(=O)Nc1c(O)c2ccc(O)c(Cl)c2oc1=O`, the midpoint of inhibition in assay [3], the IC50, lay at 50 µM.
In the case of `O=C(CCCCCC(=O)Oc1c(-c2ccc(O)c(O)c2)oc2cc(O)cc(O)c2c1=O)NCC(=O)Nc1ccc(CO)cc1`, the inhibition entry in assay [1] was “inactive”. Moreover, the fold change (FC) in assay [4] was 2.1; in assay [2], 3. The concentration for half-maximal inhibition (IC50) in assay [5] and in assay [3] was greater than 200 µM throughout.
In the case of `O=C(O)Cc1ccc(NC(=O)CNC(=O)CCCCCC(=O)Oc2c(-c3ccc(O)c(O)c3)oc3cc(O)cc(O)c3c2=O)cc1`, the inhibition entry in assay [1] was “inactive”. The fold change (FC) in assay [4] is less than 1; in assay [2], 1.8. Also, the IC50 in assay [5] and in assay [3] was greater than 200 µM each time.

(Values after ChEMBL document CHEMBL2434911, “Flavone-based analogues inspired by the natural product simocyclinone D8 as DNA gyrase inhibitors” (Bioorg Med Chem Lett, 2013).)
